Laboratory results published in paper PMC12732581, “Molecular and System-Level Characterization of MMP12 Suppression in Lung Cancer: A Combined Bioinformatics and Molecular Approach” (International Journal of Molecular Sciences, 2025).

Legend:
[1] = target: T1, recombinant human MMP12 (Homo sapiens, UniProt P39900); assay: MMP12 colorimetric thiopeptide enzyme inhibition assay (Abcam); type: biochemical; conditions: at 50 µM
T1 construct: purchased Abcam
Method: The enzyme inhibition potential of synthesized p-chlorocinnamic acid derivatives against MMP12 was assessed using the Abcam colorimetric assay.
The inhibitory activity of the newly synthesized compounds against MMP12 was assessed using a previously established enzymatic assay protocol, as described in our earlier study. In brief, we conducted a colorimetric thiopeptide-based inhibition assay for MMP12 using recombinant human MMP12 and the reference inhibitor NNGH as a positive control. The IC50 values were calculated using GraphPad Prism version 9 (GraphPad Software, San Diego, CA, USA).

[2] = system: A549 lung cancer cells; assay: MTT cell viability assay, A549; type: cell-based, human
Method: (§1) To evaluate the impact of MMP12 inhibitors on lung cancer cell lines, an MTT assay was performed on A549, H1299, and H661 cells exposed to varying concentrations of inhibitors over 48, 72, and 96 h.
(§2) The lung cancer cell lines referenced as A549, H1299, and H661 were acquired from the American Type Culture Collection (ATCC, Manassas, VA, USA). Fibroblast cells of dermal origin were used as a model for normal human tissue, which were also purchased from ATCC. A549, H1299, and H661 cells were maintained in the RPMI culture medium, while fibroblast cells were maintained in the DMEM high glucose culture medium. Both RPMI and DMEM culture media were supplemented with 100 U/mL penicillin, 0.1 mg/mL streptomycin to prevent bacterial growth, 10% FBS to promote cell growth, and 2 mM L-glutamine as an energy source.
(§3) The 3-(4,5-dimethylthiazol-2-yl)-2,5-diphenyltetrazolium bromide (MTT) assay was employed to evaluate cell proliferation as previously noted. All experiments were performed in triplicate wells and were repeated at least twice independently. The percentage of the relative cell viability of treated cells versus the untreated cells (negative controls) was calculated using the following formula in Equation (1) (cell viability calculation):(1) Cell viability%=optical density of treated cells/optical density of untreated cells×100

[3] = system: H1299 lung cancer cells; assay: MTT cell viability assay, H1299; type: cell-based, human
Method: as §1, §2, §3

[4] = system: H661 lung cancer cells; assay: MTT cell viability assay, H661; type: cell-based, human
Method: as §1, §2, §3

T1 sequence (P39900 106-470): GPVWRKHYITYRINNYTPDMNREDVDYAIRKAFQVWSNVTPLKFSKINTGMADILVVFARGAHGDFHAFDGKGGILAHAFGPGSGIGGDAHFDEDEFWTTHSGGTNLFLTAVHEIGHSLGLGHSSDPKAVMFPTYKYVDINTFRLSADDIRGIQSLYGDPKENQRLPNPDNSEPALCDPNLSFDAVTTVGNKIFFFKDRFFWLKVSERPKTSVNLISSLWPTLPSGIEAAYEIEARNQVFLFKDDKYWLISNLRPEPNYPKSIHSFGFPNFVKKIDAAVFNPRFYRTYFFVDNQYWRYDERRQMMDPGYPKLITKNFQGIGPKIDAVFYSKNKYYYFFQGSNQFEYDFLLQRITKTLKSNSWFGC

SMILES: O=C(/C=C/c1ccc(Cl)cc1)Nc1ccc(Cl)cc1C(=O)c1ccccc1 [Compound C3]
- MMP12 enzyme inhibition [1]: 23.5%
- IC50 ([2]; A549, 48 h): 251 µM
- IC50 ([2]; A549, 72 h): 269 µM
- IC50 ([2]; A549, 96 h): 999 µM
- IC50 ([3]; H1299, 48 h): 557 µM
- IC50 ([3]; H1299, 72 h): 401 µM
- IC50 ([3]; H1299, 96 h): 338 µM
- IC50 ([4]; H661, 48 h): 571 µM
- IC50 ([4]; H661, 72 h): 301 µM
- IC50 ([4]; H661, 96 h): 203 µM

SMILES: Cc1ccc(NC(=O)/C=C/c2ccc(Cl)cc2)c(C(=O)c2ccccc2)c1 [Compound C4]
- MMP12 enzyme inhibition [1]: 23.3%
- IC50 ([2]; A549, 48 h): 963 µM
- IC50 ([2]; A549, 72 h): 396 µM
- IC50 ([2]; A549, 96 h): 168 µM
- IC50 ([3]; H1299, 48 h): 616 µM
- IC50 ([3]; H1299, 72 h): 302 µM
- IC50 ([3]; H1299, 96 h): 254 µM
- IC50 ([4]; H661, 48 h): 562 µM
- IC50 ([4]; H661, 72 h): 319 µM
- IC50 ([4]; H661, 96 h): 146 µM

SMILES: O=C(/C=C/c1ccc(Cl)cc1)Nc1ccccc1C(=O)c1ccccc1 [Compound C5]
- MMP12 enzyme inhibition [1]: 11.5%
- IC50 ([2]; A549, 48 h): > 1000 µM
- IC50 ([2]; A549, 96 h): 865 µM
- IC50 ([3]; H1299, 48 h): 636 µM
- IC50 ([3]; H1299, 72 h): 449 µM
- IC50 ([3]; H1299, 96 h): 419 µM
- IC50 ([4]; H661, 48 h): 489 µM
- IC50 ([4]; H661, 72 h): 366 µM
- IC50 ([4]; H661, 96 h): 226 µM

SMILES: Cc1ccc(C(=O)c2ccccc2NC(=O)/C=C/c2ccc(Cl)cc2)cc1 [Compound C6]
- MMP12 enzyme inhibition [1]: 21.3%
- IC50 ([2]; A549, 48 h): > 1000 µM
- IC50 ([2]; A549, 72 h): > 1000 µM
- IC50 ([2]; A549, 96 h): 830 µM
- IC50 ([3]; H1299, 48 h): 361 µM
- IC50 ([3]; H1299, 72 h): 268 µM
- IC50 ([3]; H1299, 96 h): 256 µM
- IC50 ([4]; H661, 48 h): 448 µM
- IC50 ([4]; H661, 72 h): 260 µM
- IC50 ([4]; H661, 96 h): 270 µM
